Measurements as given in US4699901A, “Diacyl derivatives of glycerylphosphorylcholine, their preparation, and antihyperlipidemic compositions” (Neopharmed SpA, priority 1984, dated 1987).

Tests used:
[1] = test system: cholesteryl ester hydrolysis and synthesis (acyl-CoA: cholesterol-acyltransferase); conditions: cited from earlier work
[2] = test system: levels of acetylcholine in the cortex; test: experimental model in the mouse of the presinaptic neurochemical damage of Alzheimer disease (Mantione); type: in vivo; conditions: Alzheimer model (Mantione et al.)
[3] = test system: cholesterol and triglycerides; test: hyperlipidemie test induced in the rat by the administration of Triton WR 1330; type: in vivo; conditions: Triton induced hyperlipidemia, at the minimum dose of 37.5 mg/kg p.os
From the text: The bis(pyridyl-3-carboxilate) esters of formula (I) show an antidislipemic activity higher than that of nicotinic acid.

What does the source list for CCCCC/C=C\C/C=C\CCCCCCCC(=O)OC[C@H](COP(=O)([O-])OCC[N+](C)(C)C)OC(=O)CCCCCCC/C=C\C/C=C\CCCCC [polienoic phosphatidylcholine, glyceril phosphorylcholine Dilinoleate]?
anti-aterogenic action [1]: An anti-aterogenic action; hydrolysis of cholesteryl ester [1]: an increase of the hydrolysis of cholesteryl ester; synthesis of cholesteryl esters from acyl-CoA: cholesterol-acyltransferase [1]: a reduction of the synthesis of cholesteryl esters

Which “inhibition of the regional diminution of the levels of acetylcholine in the cortex” value [2] does the source give for “L(alpha) glycerylphosphorylcholine bis(pyridyl-3-carboxilate) calcium salt” here?
Its value is “inhibits, in a dose-answer form, the regional diminution of the levels of acetylcholine in the cortex”.

Which results are given for C[N+](C)(C)CCOP(=O)([O-])OC[C@@H](COC(=O)c1cccnc1)OC(=O)c1cccnc1 [optically active form L(alpha), L(alpha) glycerylphosphorylcholine bis(pyridyl-3-carboxilate)]?
inhibition of cholesterol [3]: 50%; inhibition of triglycerides [3]: 50%
